Test results: patent US20250177357A1, “METHODS FOR TREATING HYPERTROPHIC CARDIOMYOPATHY” (priority 2021, published 2025)

Experiments:
Format in all cases: in vivo, human
healthy adults = assay: Phase 1 ECG (QTcF), vital signs and clinical laboratory safety
Experimental: Safety and tolerability. Safety was assessed by the incidence of adverse events (AEs) and by incidence of reduced LVEF. Treatment-emergent AEs (TEAE) were defined as AEs that began or increased after study drug administration. All AEs were coded using the Medical Dictionary for Regulatory Activities version 21.1 and graded using the National Cancer Institute Common Terminology Criteria for AEs (version 4.03) 5-point severity scale. Each AE was judged as either related or unrelated to the study drug by the treating investigator. Clinical laboratory tests were obtained at regular intervals in all cohorts.
For safety monitoring, participants in all cohorts had periodic echocardiograms, which were assessed by a cardiologist. In the SAD and MAD cohorts, echocardiograms were also reviewed by an echocardiography core laboratory for PD assessments, as described below. In addition, participants in all cohorts were monitored with continuous 12-lead ECG recording using Holter monitors. For safety monitoring, a single 12-lead ECG was extracted at screening, pre-dose, and periodically throughout follow-up, and interpreted by the investigator. In the SAD, MAD, and CYP2D6-PM cohorts, cardiodynamic ECGs (triplicate 10-second, 12-lead ECG recordings) were obtained prior to the corresponding PK blood and ECG intervals quantitated by qualified readers.

[1] = test system: patients with symptomatic oHCM; assay: Open-label extension trial in oHCM: LVOT-G, LVEF, NYHA class, KCCQ
Text: An open-label extension clinical trial of CK-274 in patients with symptomatic oHCM was initiated.
Patients who completed the study as described in Example 2 and had not developed atrial fibrillation were eligible to enroll in the study. Echo-guided dose titration based on site reads was managed by the investigator and could occur at any time during the trial, as described below.
Each patient received Dose 1 of CK-274 once daily for 2 weeks. […] Patients were up-titrated to Dose 2 if either of the following conditions were met on echocardiography: (1) resting LVOT-G≥30 mmHg and the biplane LVEF≥50%; or (2) resting LVOT-G<30 mmHg, post-Valsalva LVOT-G≥50 mmHg, and the biplane LVEF≥50%. Otherwise, the patient remained on 5 mg of CK-274. If LVEF was […], treatment was discontinued. If LVEF was <40%, treatment is interrupted.
Ambulatory cardiac monitoring is performed on weeks 48, 96, 144, 192 and 240. Cardiac magnetic resonance is monitored at weeks 48, 144 and 240. (See FIG. 26).
Change in KCCQ scores from baseline, including OSS=overall summary score, CSS=clinical summary score, TSS=total symptom score, PLS=physical limitation score, SLS=social limitation score, QoL=quality of life, were determined. Patients were categorized with worsened (≤−5 points), unchanged (−5 to <5 points), small improvement (5 to <10 points), moderate to large improvement (10 to <20 points), and large to very large improvement (≥20 points) relative to baseline.

[2] = Phase 1 plasma pharmacokinetics, multiple-ascending dose cohorts; conditions: for CLss/F, mean ± SD: n = 6
Experimental: Multiple-ascending dose (MAD) cohorts. The MAD cohorts also used a randomized, double-blind, placebo-controlled, sequential design.
(§1) Pharmacokinetic analyses. For all study groups, blood samples for PK assessment were obtained pre-dose, up to 12 times daily on day 1, and then at regular intervals throughout the study. Blood samples were collected according to the following schedule: SAD Cohorts: Day 1: pre-dose and 0.25, 0.5, 1, 1.5, 2, 2.5, 3, 4, 6, 8, 12, 16, 24, 36, 48, 72, 96, and 216 h post dose. MAD Cohorts (14-day Dosing): Day 1: pre-dose and 0.25, 0.5, 1, 1.5, 2, 2.5, 3, 4, 6, 8, and 12 h post dose; Days 2, 4, 5, 6, and 9: pre-dose (corresponding to trough samples following dosing on days 1, 3, 4, 5, and 8) and 1.5 h post dose; Days 3, 7, 8, 10, 11, 12, and 13: pre-dose (corresponding to trough samples following dosing on days 2, 6, 7, 9, 10, 11, and 12); Day 14: pre-dose and 0.25, 0.5, 1.5, 2, 2.5, 3, 4, 6, 8, 12, 16, 24, 36, 48, 72, and 168 h post dose. MAD Cohort (17-Day Dosing): Day 1: pre-dose and 0.25, 0.5, 1, 1.5, 2, 2.5, 3, 4, 6, 8, and 12 h post dose; Days 2, 4, 5, 6, and 9: pre-dose (corresponding to trough samples following dosing on days 1, 3, 4, 5, and 8) and 1.5 h post dose; Days 3, 7, 8, 10, 11, 12, 13, 14, 15, and 16: pre-dose (corresponding to trough samples following dosing on days 2, 6, 7, 9, 10, 11, and 12); Day 17: pre-dose and 0.25, 0.5, 1.5, 2, 2.5, 3, 5, 7, 9, 12, 24, 36, 48, 72, and 168 h post dose. CYPD6-PM Cohort: Day 1: pre-dose and 0.25, 0.5, 1, 1.5, 2, 2.5, 3, 4, 6, 8, 12, 16, 24, 36, 48, 72, 96, 216, 312, and 552 h post dose. Food-Effect Cohort: Day 1: pre-dose and 0.25, 0.5, 1, 1.5, 2, 2.5, 3, 4, 6, 8, 12, 16, 24, 36, 48, 72, 96, 144, and 216 h post dose. Standard non-compartmental methods were used to calculate PK parameters using Phoenix® WinNonlin® Version 7.0; actual sample collection times were utilized.
(§2) For the MAD cohort, the parameters were AUC24 and Cmax on day 1, plus AUC to the […] (AUCtau) and Cmax on day 14 or 17. The statistical linear relationship between the ln-transformed PK parameters and the ln-transformed dose was verified by including the quadratic (ln Dose)^2 and cubic (ln Dose)^3 effects. […] The dose-proportionality analysis was performed using SAS® PROC MIXED.
An analysis of variance (ANOVA) model was conducted separately for each dose level; day was included as the fixed effect. Helmert contrasts were developed such that each time-point was compared with the mean of the subsequent time-points.

[3] = Phase 1 plasma pharmacokinetics, single-ascending dose cohorts
Experimental: Single-ascending dose (SAD) cohorts. The SAD portion of the study used a randomized, double-blind, placebo-controlled, sequential, escalating-dose design, in which participants received single-ascending oral doses of the study drug. Seven cohorts were dosed in sequence (FIG. 2).
as §1, §2

## CCc1nc(-c2ccc3c(c2)CC[C@H]3NC(=O)c2cnn(C)c2)no1 [aficamten, (R)—N-(5-(5-ethyl-1,2,4-oxadiazol-3-yl)-2,3-dihydro-1H-inden-1-yl)-1-methyl-1H-pyrazole-4-carboxamide]
Healthy adults; all Phase 1 cohorts
  Serum chemistry, hematology, urinalysis findings: No clinically significant serum chemistry, hematology, or urinalysis findings
Healthy adults; all cohorts (exception: 1 placebo participant)
  Increases in QTcF interval: ≤ 30 ms
Healthy adults; all cohorts, exception of 2 individuals with baseline QTcF ≥440 ms
  QTcF at baseline or any assessment during the dosing interval: ≤ 450 ms
Healthy adults; single or multiple doses
  QT effect in cardiodynamic assessments: no evidence of a positive QT effect
[1]; Week 24
  Participants with very large clinical improvements (≥20 points) in KCCQ: 40.0%
[1]; Weeks 2-24, site reads
  LVOT gradients (resting and Valsalva) over time: significant and sustained reduction
[1]; open-label extension
  Patients with worsening in NYHA class from baseline: No patients
[1]; through Week 24
  LVEF over time: minimal and stable reductions
[2]; 5-mg and 7.5-mg doses once daily
  Steady state achieved by the end of day: 12 days
[2]; 10-mg dose once daily
  Steady state achieved by the end of day: 10 days
[2]; Day 14, 5 mg qd × 14 Days
  CLss/F, mean ± SD: 3.9 ± 0.9 L/h
[2]; Day 14, 10 mg qd × 14 Days
  CLss/F, mean ± SD: 3.9 ± 0.8 L/h
[2]; Day 17, 7.5 mg qd × 17 Days
  CLss/F, mean ± SD: 3.1 ± 0.7 L/h
[2]; once-daily dosing
  Time within which steady state is achieved: ≤ 2 weeks
[3]; SAD cohorts
  Maximum time to maximum observed concentration across all participants: 4.0 h
[3]; single oral dose 3 mg, n = 5
  CL/F, mean ± SD: 4.2 ± 3.1 L/h
[3]; single oral dose 10 mg, n = 4
  CL/F, mean ± SD: 3.0 ± 0.7 L/h
[3]; single oral dose 25 mg, n = 6
  CL/F, mean ± SD: 3.6 ± 0.5 L/h
[3]; single oral dose 40 mg, n = 5
  CL/F, mean ± SD: 3.4 ± 0.6 L/h
[3]; single oral dose 50 mg, n = 9
  CL/F, mean ± SD: 3.8 ± 1.1 L/h
